{"source": "patent US4892883A", "about": "“Pharmaceutical compositions containing bilobalide for the treatment of neuropathies Ai” (Willman - Schwabe GmbH & Co., priority 1973, dated 1990)", "key": {"[1]": {"tested_on": "male Sprague-Dawley rats given triethyltin chloride (brain water and electrolyte contents)", "assay": "Protective effect against triethyltin chloride (TET) intoxication (Experiment 1, Table I)", "type": "in vivo, rat (Sprague-Dawley)", "details": "for Brain % water / Brain K^+ / Brain Na^+ / Brain Na^+ /K^+ / Mean body weight, 14 days / Mean body weight, initial: TET 0.002%", "experimental": "Male Sprague-Dawley rats (200-300 g body weight) are offered an aqueous solution containing 0.002 per cent triethyltin chloride (abbreviated to TET) as drinking liquid for 14 days. Control animals received water. The Gingko biloba monoextract (EGB) with or without bilobalide and the various test substances are administered orally 1×daily throughout these 14 days. On day 15, the animals are sacrificed, the brain is removed and its water and electrolyte contents are determined. The body weight of the animals during the experiment is checked daily."}, "[2]": {"tested_on": "male Sprague-Dawley rats given hexachlorophene (brain water and electrolyte contents)", "assay": "Protective effect against hexachlorophene intoxication (Experiment 2, Table II)", "type": "in vivo, rat (Sprague-Dawley)", "details": "hexachlorophene i.p.", "experimental": "In another experiment, male Sprague-Dawley rats (200-250 g body weight) receive intraperitoneal injections of 20 mg/kg hexachlorophene (suspended in 0.2% agar) for 2 days and only 10 mg/kg on the 3rd day. The test substances are administered orally after administration of hexachlorophene.\nThe control animals receive only 0.2% agar i.p. or tap water orally. On the 4th day, the animals are sacrificed and the water and electrolyte contents in the brain are determined. The body weight of the animals is measured daily throughout the 4 days."}, "[3]": {"tested_on": "neuropathy on the triethyltin chloride model", "assay": "Protective action against TET-induced neuropathy, hotplate test (Experiment 4, Table III)", "type": "in vivo, rat (Sprague-Dawley)", "details": "TET 0.002%", "experimental": "The investigations of the protective action against damage to myelin and its expression as neuropathy is likewise carried out on the triethyltin chloride model. When the animals are treated not for 14 days but for only 6 days with a 0.002 per cent TET solution administered in place of the drinking water, they show various signs of neuropathy although no cerebral oedema is detectable in this period. The neuropathy is quantified by measuring the consumption of food and water and by the changes in body weight. In addition, as a specific parameter, the pain reaction time in a hotplate test (at 50° C.) is measured (J. Pharm. Pharmacol., 9 (1957), 381)."}, "[4]": {"tested_on": "neuropathy on the triethyltin chloride model", "assay": "Curative action on TET-induced neuropathy, hotplate test (Experiment 5, Table IV)", "type": "in vivo, rat (Sprague-Dawley)", "details": "for Body weight after intoxication / Food consumption after intoxication / Hotplate reaction time after intoxication / Water consumption after intoxication: after 6 days TET, before treatment", "experimental": "In a similar manner, the curative action of bilobalid or extract containing bilobalide is investigated. The animals are offered a 0.002 per cent TET solution in place of drinking water for 6 days. Subsequently (from the 7th day), the TET solution is replaced by tap water and, simultaneously, the daily oral treatment is started. Treatment is continued for 6 days. The measured parameters (body weight, consumption of food and water, hotplate reaction time) are determined on the 6th day before the treatment and on the 14th day after the treatment."}, "[5]": {"tested_on": "cholinergic mechanisms of the central nervous system", "assay": "Stimulating effect on cholinergic mechanisms of the central nervous system", "details": "in vivo", "experimental": "The stimulating effects of the extract on the cholinergic system of the central nervous system were determined in various experiments. In one of these experiments the influence of the extract on the spontaneous climbing behaviour (SCB) was examined according to the method described by Marcais et al. (Psychopharmacology; 56, 233-234, 1978)."}, "[6]": {"tested_on": "existent neuropathies, neurological and mental functions", "assay": "Clinical investigations", "type": "in vivo"}, "[7]": {"tested_on": "neuropathy on the triethyltin chloride model", "assay": "Protective action against TET-induced neuropathy, hotplate test (Experiment 4, Table III)", "type": "in vivo, rat (Sprague-Dawley)", "details": "overall conclusion of Experiments 1 to 5"}, "Monilia fructicola": {"tested_on": "Monilia fructicola", "details": "cited from earlier work"}, "Penicillium glaucum": {"tested_on": "Penicillium glaucum", "details": "cited from earlier work"}, "Escherichia coli": {"tested_on": "Escherichia coli", "details": "cited from earlier work"}, "mouse ear": {"tested_on": "mouse ear", "details": "cited from earlier work"}, "[8]": {"details": "5 mg/kg p.o. daily 6 days after TET"}, "[9]": {"details": "10 mg/kg p.o. daily 6 days after TET"}}}
{"smiles": "CC(C)(C)C1(O)CC2OC(=O)CC23C(=O)OC2OC(=O)C(O)C231", "note": "(centres unmarked) [Bilobalide, bilobalide]", "values": [{"measurement": "Brain % water", "setting": "[1]; 5 mg/kg p.o. 1×daily 14 days", "result": "78.57 ± 0.19", "unit": "%"}, {"measurement": "Brain K^+", "setting": "[1]; 5 mg/kg p.o. 1×daily 14 days", "result": "418.9 ± 14.4", "unit": "mmol/kg dry weight"}, {"measurement": "Brain Na^+", "setting": "[1]; 5 mg/kg p.o. 1×daily 14 days", "result": "162.6 ± 5.4", "unit": "mmol/kg dry weight"}, {"measurement": "Brain Na^+ /K^+", "setting": "[1]; 5 mg/kg p.o. 1×daily 14 days", "result": "0.39 ± 0.020"}, {"measurement": "Mean body weight, 14 days", "setting": "[1]; 5 mg/kg p.o. 1×daily 14 days", "result": 323, "unit": "g"}, {"measurement": "Mean body weight, initial", "setting": "[1]; 5 mg/kg p.o. 1×daily", "result": 288, "unit": "g"}, {"measurement": "Brain % water", "setting": "[1]; 10 mg/kg p.o. 1×daily 14 days", "result": "78.16 ± 0.09", "unit": "%"}, {"measurement": "Brain K^+", "setting": "[1]; 10 mg/kg p.o. 1×daily 14 days", "result": "452.7 ± 12.9", "unit": "mmol/kg dry weight"}, {"measurement": "Brain Na^+", "setting": "[1]; 10 mg/kg p.o. 1×daily 14 days", "result": "198.3 ± 2.74", "unit": "mmol/kg dry weight"}, {"measurement": "Brain Na^+ /K^+", "setting": "[1]; 10 mg/kg p.o. 1×daily 14 days", "result": "0.44 ± 0.04"}, {"measurement": "Mean body weight, 14 days", "setting": "[1]; 10 mg/kg p.o. 1×daily 14 days", "result": 318, "unit": "g"}, {"measurement": "Mean body weight, initial", "setting": "[1]; 10 mg/kg p.o. 1×daily", "result": 272, "unit": "g"}, {"measurement": "Brain % water", "setting": "[1]; 20 mg/kg p.o. 1×daily 14 days", "result": "77.75 ± 0.11", "unit": "%"}, {"measurement": "Brain K^+", "setting": "[1]; 20 mg/kg p.o. 1×daily 14 days", "result": 400.6, "unit": "mmol/kg dry weight"}, {"measurement": "Brain Na^+", "setting": "[1]; 20 mg/kg p.o. 1×daily 14 days", "result": "187.9 ± 10.4", "unit": "mmol/kg dry weight"}, {"measurement": "Brain Na^+ /K^+", "setting": "[1]; 20 mg/kg p.o. 1×daily 14 days", "result": "0.45 ± 0.05"}, {"measurement": "Mean body weight, 14 days", "setting": "[1]; 20 mg/kg p.o. 1×daily 14 days", "result": 325, "unit": "g"}, {"measurement": "Mean body weight, initial", "setting": "[1]; 20 mg/kg p.o. 1×daily", "result": 288, "unit": "g"}, {"measurement": "protective effect against decrease in body weight and increase in brain water and Na^+", "setting": "[1]; oral, TET 14 days", "result": "good protective effect"}, {"measurement": "Mean body weight, 4th day", "setting": "[2]; 5 mg/kg p.o.", "result": 270, "unit": "g"}, {"measurement": "Brain % water", "setting": "[2]; 5 mg/kg p.o., 4th day", "result": "77.93 ± 0.17", "unit": "%"}, {"measurement": "Brain K^+", "setting": "[2]; 5 mg/kg p.o., 4th day", "result": "414.5 ± 4.4", "unit": "mmol/kg dry weight"}, {"measurement": "Brain Na^+", "setting": "[2]; 5 mg/kg p.o., 4th day", "result": "187.9 ± 4.0", "unit": "mmol/kg dry weight"}, {"measurement": "Brain Na^+ /K^+", "setting": "[2]; 5 mg/kg p.o., 4th day", "result": "0.45 ± 0.01"}, {"measurement": "Mean body weight, initial", "setting": "[2]; 5 mg/kg p.o., initial", "result": 264, "unit": "g"}, {"measurement": "protection from cerebral oedema and reduction in body weight", "setting": "[2]; oral", "result": "protects the animals from the development of cerebral oedema and prevents the reduction in body weight"}, {"measurement": "Food consumption, final", "setting": "[3]; 10 mg/kg/day p.o. 6 days", "result": 22.1, "unit": "g/animal/day"}, {"measurement": "Mean body weight, final", "setting": "[3]; 10 mg/kg/day p.o. 6 days", "result": 261, "unit": "g"}, {"measurement": "Water consumption, final", "setting": "[3]; 10 mg/kg/day p.o. 6 days", "result": 21.9, "unit": "ml/animal/day"}, {"measurement": "Hotplate reaction time, final", "setting": "[3]; 10 mg/kg/day p.o. 6 days, 50° C.", "result": 17.9, "unit": "s"}, {"measurement": "Hotplate reaction time, initial", "setting": "[3]; 10 mg/kg/day p.o., 50° C., initial", "result": 28.9, "unit": "s"}, {"measurement": "Food consumption, initial", "setting": "[3]; 10 mg/kg/day p.o., initial", "result": 24.3, "unit": "g/animal/day"}, {"measurement": "Mean body weight, initial", "setting": "[3]; 10 mg/kg/day p.o., initial", "result": 241, "unit": "g"}, {"measurement": "Water consumption, initial", "setting": "[3]; 10 mg/kg/day p.o., initial", "result": 35.1, "unit": "ml/animal/day"}, {"measurement": "protective action against neuropathic signs", "setting": "[3]; oral, 6 days", "result": "good protective action against the neuropathic signs"}, {"measurement": "Body weight after treatment", "setting": "[4]; [8]", "result": 242, "unit": "g"}, {"measurement": "Food consumption after treatment", "setting": "[4]; [8]", "result": 17.4, "unit": "g/animal/day"}, {"measurement": "Hotplate reaction time after treatment", "setting": "[4]; [8]", "result": 61.58, "unit": "s"}, {"measurement": "Water consumption after treatment", "setting": "[4]; [8]", "result": 31.4, "unit": "ml/animal/day"}, {"measurement": "Body weight after intoxication", "setting": "[4]; 5 mg/kg p.o. group", "result": 236, "unit": "g"}, {"measurement": "Food consumption after intoxication", "setting": "[4]; 5 mg/kg p.o. group", "result": 10.4, "unit": "g/animal/day"}, {"measurement": "Hotplate reaction time after intoxication", "setting": "[4]; 5 mg/kg p.o. group", "result": "88.1 ± 5.67", "unit": "s"}, {"measurement": "Water consumption after intoxication", "setting": "[4]; 5 mg/kg p.o. group", "result": 11.4, "unit": "ml/animal/day"}, {"measurement": "Body weight after treatment", "setting": "[4]; [9]", "result": 232, "unit": "g"}, {"measurement": "Food consumption after treatment", "setting": "[4]; [9]", "result": 18.6, "unit": "g/animal/day"}, {"measurement": "Hotplate reaction time after treatment", "setting": "[4]; [9]", "result": "48.58 ± 18.44", "unit": "s"}, {"measurement": "Water consumption after treatment", "setting": "[4]; [9]", "result": 23.1, "unit": "ml/animal/day"}, {"measurement": "Body weight after intoxication", "setting": "[4]; 10 mg/kg p.o. group", "result": 227, "unit": "g"}, {"measurement": "Food consumption after intoxication", "setting": "[4]; 10 mg/kg p.o. group", "result": 8.9, "unit": "g/animal/day"}, {"measurement": "Hotplate reaction time after intoxication", "setting": "[4]; 10 mg/kg p.o. group", "result": "87.36 ± 7.46", "unit": "s"}, {"measurement": "Water consumption after intoxication", "setting": "[4]; 10 mg/kg p.o. group", "result": 12.7, "unit": "ml/animal/day"}, {"measurement": "regression of pre-existent damage", "setting": "[4]; overall conclusion", "result": "pre-existent damage can be made to regress more quickly"}, {"measurement": "stimulating effect on cholinergic mechanisms of the central nervous system", "setting": "[5]", "result": "stimulating effect on the cholinergic mechanisms of the central nervous system"}, {"measurement": "effects on existent neuropathies, neurological and mental functions", "setting": "[6]", "result": "favourable effects on existent neuropathies, neurological and mental functions"}, {"measurement": "prevention of neurotoxic signs and of cerebral oedema", "setting": "[7]", "result": "prevents the occurrence of neurotoxic signs and of cerebral oedema"}, {"measurement": "fungicidal action", "setting": "Monilia fructicola", "result": "no fungicidal action"}, {"measurement": "fungicidal action", "setting": "Penicillium glaucum", "result": "no fungicidal action"}, {"measurement": "bactericidal action", "setting": "Escherichia coli", "result": "nor any bactericidal action"}, {"measurement": "inflammatory action", "setting": "mouse ear", "result": "no inflammatory action"}]}
